Measurements as given in patent US20030109418A1, “Methods for identifying compounds for inhibition of neoplastic lesions, and pharmaceutical compositions containing such compounds” (priority 1999, published 2003).
Like-named read-outs stand apart in the source and are kept apart here.

Assays:
[1] = tested on: HT-29 human colon carcinoma cell line; experiment: Growth inhibition, SRB assay, HT-29; type: cell-based; parameters: Growth Inhibition: key to the marks not given beside the values; conditions: for Growth Inhibition: qualitative activity profile; for IC50: HT-29 treated for 6 days, SRB assay, read-out: Growth inhibition (IC50)
[2] = tested on: HT-29 colon adenocarcinoma cells; experiment: Apoptosis by DNA fragmentation assay in HT-29; type: cell-based, human; conditions: qualitative activity profile; also: key: −: Not active; +: Slightly active; ++: Moderately active; +++: Strongly active; ++++: Highly active
[3] = tested on: premalignant lesions in mouse mammary gland organ culture; experiment: Mammary gland organ culture model; type: cell-based; conditions: for Mammary Gland Organ Culture: qualitative activity profile; as to mammary gland organ culture: key: −: Not active; +: Slightly active; ++: Moderately active; +++: Strongly active; ++++: Highly active
From the text: Test compounds identified by the above methods can be tested for antineoplastic activity by their ability to inhibit the incidence of pre-neoplastic lesions in a mammary gland organ culture system. This mouse mammary gland organ culture technique has been successfully used by other investigators to study the effects of known antineoplastic agents such as certain NSAIDs, retinoids, tamoxifen, selenium, and certain natural products, and is useful for validation of the screening method of the present invention.
For example, female BALB/c mice can be treated with a combination of estradiol and progesterone daily, in order to prime the glands to be responsive to hormones in vitro. The animals are sacrificed, and thoracic mammary glands are excised aseptically and incubated for ten days in growth media supplemented with insulin, prolactin, hydrocortisone, and aldosterone. DMBA (7,12-dimethylbenz(a)anthracene) is added to medium to induce the formation of premalignant lesions. Fully developed glands are then deprived of prolactin, hydrocortisone, and aldosterone, resulting in the regression of the glands but not the pre-malignant lesions.
The test compound is dissolved in DMSO and added to the culture media for the duration of the culture period. At the end of the culture period, the glands are fixed in 10% formalin, stained with alum carmine, and mounted on glass slides. The incidence of forming mammary lesions is the ratio of the glands with mammary lesions to […]. The incidence of mammary lesions in test compound treated glands is compared with that of the untreated glands.
The extent of the area occupied by the mammary lesions can be quantitated by projecting an image of the gland onto a digitation pad. The area covered by the gland is traced on the pad and considered as 100% of the area. The space covered by each of the non-regressed structures is also outlined on the digitization pad and quantitated by the computer.
Mammary gland organ culture experiment were performed as previously described (Mehta and Moon, Cancer Research, 46: 5832-5835, 1986). […] The data support the hypothesis that cyclooxygenase inhibition is not necessary for the anti-neoplastic properties of desired compounds.

[4] = target: T1, purified cyclooxygenase (Type 1, COX-I) from ram seminal vesicles (Ovis aries, UniProt P05979); experiment: COX inhibition assay, purified cyclooxygenase; type: biochemical; conditions: for COX Inhibition: qualitative activity profile
T1 construct: using purified cyclooxygenase from ram seminal vesicles as described previously; tissue Cayman Chemical, Ann Arbor, Mich; (named in the general protocol only); host or cells: ram seminal vesicles
T1 sequence (P05979 25-600): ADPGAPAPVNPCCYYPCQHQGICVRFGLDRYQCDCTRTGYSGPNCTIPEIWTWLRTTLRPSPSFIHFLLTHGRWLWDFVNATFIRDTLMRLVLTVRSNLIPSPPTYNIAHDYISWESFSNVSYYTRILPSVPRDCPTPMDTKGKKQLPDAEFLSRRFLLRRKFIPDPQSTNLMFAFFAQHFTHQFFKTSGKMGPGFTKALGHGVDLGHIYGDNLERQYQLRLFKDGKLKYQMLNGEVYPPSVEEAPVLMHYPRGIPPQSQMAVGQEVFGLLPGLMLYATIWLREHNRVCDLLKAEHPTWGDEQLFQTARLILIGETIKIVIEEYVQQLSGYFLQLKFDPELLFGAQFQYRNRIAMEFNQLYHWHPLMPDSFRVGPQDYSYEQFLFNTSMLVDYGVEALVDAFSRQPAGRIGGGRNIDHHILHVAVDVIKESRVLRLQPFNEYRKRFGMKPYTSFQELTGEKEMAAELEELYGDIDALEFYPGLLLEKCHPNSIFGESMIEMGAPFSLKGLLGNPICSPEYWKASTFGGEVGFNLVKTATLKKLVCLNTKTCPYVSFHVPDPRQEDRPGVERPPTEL

[5] = tested on: cGMP PDE purified from human colon HT-29 cultured tumor cells; experiment: cGMP PDE inhibition assay; type: biochemical; conditions: for PDE Inhibition: qualitative activity profile
[6] = target: T2, cGMP binding sites of the GST-cGB-PDE5 protein (Homo sapiens, UniProt O76074); experiment: cGMP binding assay with GST-cGB-PDE5 fusion protein; conditions: for competition with cGMP binding at high concentration: 100 μM competitor, cGMP 2 μM
T2 construct: made in house; host or cells: E. coli BL21 (DE3)

HT-29 cells = experiment: Apoptosis and necrosis by morphology (acridine orange and ethidium bromide); type: cell-based, human; conditions: HT-29 treated for 6 days
From the text: Apoptosis occurs naturally during normal tissue turnover and during embryonic development of organs and limbs. Apoptosis also is induced by cytotoxic T-lymphocytes and natural killer cells, by ionizing radiation and by certain chemotherapeutic drugs. Inappropriate regulation of apoptosis is thought to play an important role in many pathological conditions including cancer, AIDS, or Alzheimer's disease, etc. Compounds can be screened for induction of apoptosis using cultures of tumor cells maintained under conditions as described above. Treatment of cells with test compounds involves either pre- or post-confluent cultures and treatment for two to seven days at various concentrations. Apoptotic cells are measured in both the attached and “floating” compartments of the cultures. Both compartments are collected by removing the supernatant, trypsinizing the attached cells, and combining both preparations following a centrifugation wash step (10 minutes, 2000 rpm). The protocol for treating tumor cell cultures with sulindac and related compounds to obtain a significant amount of apoptosis has been described in the literature. (See, Piazza, G. A., et al., Cancer Research, 55:3110-16, 1995, which is incorporated herein by reference). The novel features include collecting both floating and attached cells, identification of the optimal treatment times and dose range for observing apoptosis, and identification of optimal cell culture conditions.
Following treatment with a compound, cultures can be assayed for apoptosis and necrosis by florescent microscopy following labeling with acridine orange and ethidium bromide. The method for measuring apoptotic cell number has previously been described by Duke & Cohen, “Morphological And Biochemical Assays Of Apoptosis,” Current Protocols In Immunology, Coligan et al., eds., 3.17.1-3.17.16 (1992, which is incorporated herein by reference).
For example, floating and attached cells can be collected by trypsinization and washed three times in PBS. Aliquots of cells can be centrifuged. The pellet can then be re-suspended in media and a dye mixture containing acridine orange and ethidium bromide prepared in PBS and mixed gently. The mixture can then be placed on a microscope slide and examined for morphological features of apoptosis.
Reference compounds and test compounds were analyzed for their novel PDE inhibitory activity in accordance with the protocols for the assay, supra. […] Apoptotic and necrotic cell death was determined previously (Duke and Cohen, In: Current Protocols in Immunology, 3.17.1-3.17.16, New York, John Wiley and Sons, 1992). […] All data were collected from the same experiment.
The apoptosis inducing activity for a series of phosphodiesterase inhibitors was determined. HT-29 cell were treated for 6 days with various inhibitors of phosphodiesterase. Apoptosis and necrosis were determined morphologically after acridine orange and ethidium bromide labeling in accordance with the assay described, supra.

[7] = target: T3, PDE peak A (PDE5) from SW480 cells (Homo sapiens, UniProt O76074); experiment: cGMP hydrolysis inhibition, PDE peak A from SW480; type: biochemical
T3 construct: endogenous in cells; host or cells: SW480 colon cancer cells, DEAE-Trisacryl M fraction

[8] = tested on: cGMP and cAMP levels in HT-29 cells; experiment: Cyclic nucleotide levels in cultured cells by radioimmunoassay; type: cell-based, human; conditions: HT-29 cells treated 30 minutes

With `CC(=O)NC(CSC12CC(=O)OC1(C)/C(=C/c1ccc(S(C)(=O)=O)cc1)c1ccc(F)cc12)C(=O)O` (racemic) [D, rac-(E)-1-(butan-1′,4′-olido)-[3′,4′: 1,2]-6-fluoro-2-methyl-3-(p-methylsulfonylbenzylidene)-1S-indanyl-N-acetylcysteine] the “Growth-inhibitory activity, % Inhibition at 100 μM” value [1] was 78%, the “Growth Inhibition” value [1] was “++” and the Apoptosis [2] was “−”. For the same compound, the “Mammary Gland Organ Culture” value [3] was “−”, the “Cyclooxygenase inhibitory activity, % Inhibition at 100 μM” value [4] was less than 25% and the “COX Inhibition” value [4] was “−”. The “PDE Inhibition” value [5] was “−”.
For `CCCCOC1C2OP(=O)(O)OCC2OC1n1cnc2c(N)ncnc21` (centres unmarked) [2′-O-butyl-cAMP], the “competition with cGMP in binding of GST-cGB-PDE5” value (from here on “competition with cGMP in binding”) ([6]; 3H-cGMP 2 μM) was “did not compete with cGMP in binding”.
With `CCCCOC1C2OP(=O)(O)OCC2OC1n1cnc2c(=O)[nH]c(N)nc21` (centres unmarked) [2′-O-butyl-cGMP] the “competition with cGMP in binding” value ([6]; 3H-cGMP 2 μM) was “did not compete with cGMP in binding”.
In the case of `COc1nc2c([nH]1)c(=O)n(C)c(=O)n2CC(C)C` [8-methoxy-IBMX], the IC50 [1] is reported as greater than 200 µM, the “% Apoptosis” value (HT-29 cells) is reported as 2% and the “% Necrosis” value (HT-29 cells) is reported as 1%.
For `Nc1nc2c(nc(Br)n2[C@@H]2O[C@@H]3COP(=O)(O)O[C@H]3[C@H]2O)c(=O)[nH]1` [Compound 8-bromo-cGMP], the “competition with cGMP binding at high concentration” value [6] was “can partially compete”.
With `CC1=C(CC(=O)O)c2cc(F)ccc2/C1=C\c1ccc(Cl)cc1` [Compound C, (Z)-5-Fluoro-2-methyl-1-(p-chlorobenzylidene)-3-acetic acid] the “Growth-inhibitory activity, % Inhibition at 100 μM” value [1] was 80% and the “cGMP PDE inhibitory activity, % Inhibition at 10 μM” value ([5]; 10 μM) was less than 25%.
In the case of `Nc1ncnc2c1ncn2[C@@H]1O[C@@H]2COP(=O)(O)O[C@H]2[C@H]1O` [Cyclic AMP], the “competition with cGMP in binding” value [6] is reported as “did not compete with cGMP in binding”.
In the case of `O=c1[nH]cnc2c1ncn2[C@@H]1O[C@@H]2COP(=O)(O)O[C@H]2[C@H]1O` [Cyclic IMP], the “competition with cGMP binding at high concentration” value [6] is reported as “can partially compete”.
In the case of `CC1=C(CC(=O)N(C2CCCCC2)C2CCCCC2)c2cc(F)ccc2/C1=C\c1ccc(S(C)(=O)=O)cc1` [F, (Z)-5-Fluoro-2-methyl-1-(p-methylsulfonylbenzylidene)-3-indenylacetamide, N,N′-dicyclohexyl], the “Growth Inhibition” value [1] is reported as “++”, the Apoptosis [2] is reported as “+” and the “Mammary Gland Organ Culture” value [3] is reported as “−”. For the same compound, the “COX Inhibition” value [4] was “−” and the “PDE Inhibition” value [5] was “−”.
`CC(C)Cn1c(=O)n(C)c(=O)c2[nH]cnc21` [IBMX] was tested, and the IC50 [1] was greater than 100 µM, the “% Apoptosis” value (HT-29 cells) was 4% and the “% Necrosis” value (HT-29 cells) was 13%.
With `CC1(C)C(=O)Nc2ccc(C3=NNC(=O)CC3)cc21` [Indolidan] the “Ratio (IC50 Peak A/Peak B)” value [7] was less than 0.31.
In the case of `Clc1cccc(Nc2nnc(-c3ccccc3)c3ccccc23)c1` [MY5445, 1-(3-chloroanilino)-4-phenyphthalazine], the IC50 [1] is reported as 5 µM, the “Growth Inhibition” value [1] is reported as “+++” and the Apoptosis [2] is reported as “+++”. For the same compound, the “Mammary Gland Organ Culture” value [3] was “+”, the “Cyclooxygenase inhibitory activity, % Inhibition at 100 μM” value [4] was 94% and the “COX Inhibition” value [4] was “++++”. The “% Apoptosis” value (HT-29 cells) was 80%, the “% Necrosis” value (HT-29 cells) was 5% and the “PDE Inhibition” value [5] was “+++”.
For `CCCCOc1cc(CC2CNC(=O)N2)ccc1OC` (centres unmarked) [RO-20-1724], the IC50 [1] was greater than 200 µM, the “% Apoptosis” value (HT-29 cells) was 11% and the “% Necrosis” value (HT-29 cells) was 2%.
`COc1ccc(C2CNC(=O)C2)cc1OC1CCCC1` (centres unmarked) [Rolipram] was tested, and the “effect on cAMP levels” value [8] was “increased cAMP”.
In the case of `CCCOc1ccccc1-c1nc2nn[nH]c2c(=O)[nH]1` [Zaprinast], the “competition with cGMP in binding” value ([6]; 3H-cGMP 2 μM) is reported as “do not bind to the cGMP binding sites of PDE5”.
In the case of `Nc1ccn([C@@H]2O[C@@H]3COP(=O)(O)O[C@H]3[C@H]2O)c(=O)n1` [cCMP], the “competition with cGMP in binding” value ([6]; 3H-cGMP 2 μM) is reported as “did not compete with cGMP in binding”.
With `O=c1ccn([C@@H]2O[C@@H]3COP(=O)(O)O[C@H]3[C@H]2O)c(=O)[nH]1` [cUMP] the “competition with cGMP in binding” value ([6]; 3H-cGMP 2 μM) was “did not compete with cGMP in binding”.
`CC1=C(CC(=O)O)c2cc(F)ccc2/C1=C\c1ccc([S+](C)[O-])cc1` (centres unmarked) [sulindac] was tested, and the “inhibition of the formation of premalignant lesions” value ([3]; mammary gland organ culture) was “effectively inhibit the formation of premalignant lesions”.
For “rac-(E)-1-(butan-1′, 4′-olido)-[3′, 4′: 1,2]-6-fluoro-2-methyl-3-(p-methylsulfonylbenzylidene)-1S-indanyl-glutathione)”, the “Growth Inhibition” value [1] was “++”, the Apoptosis [2] was “−” and the “Mammary Gland Organ Culture” value [3] was “−”. The “COX Inhibition” value [4] was “−” and the “PDE Inhibition” value [5] was “−”.
With “ribo-(E)-1-Triazolo-[2′, 3′: 1″, 3″]-1-(butan-1′, 4′-olido)-[3′, 4′: 1, 2]-6-flouro-2-methyl-3-(p-methylsulfonylbenzylidene)-indan [G]” the “Growth Inhibition” value [1] was “+++”, the Apoptosis [2] was “++” and the “Mammary Gland Organ Culture” value [3] was “+++”. For the same compound, the “COX Inhibition” value [4] was “−” and the “PDE Inhibition” value [5] was “−”.
